Columns and labels:
rats = test: Test A: administration by infusion (rats), recovery after termination of infusion; format: in vivo, rat (Sprague-Dawley)
Protocol: (§1) Test compounds, e.g., representative compounds of the invention as well as the comparison compound, propanidid, were formulated in (1) 10% cremophor EL/90% D5W (5% dextrose in distilled water) (2) 10% Liposyn® III (Intravenous Fat Emulsion, containing (per 100 mL) 10 g soybean oil, 1.2 g egg phosphatides and […]), available from Abbott Laboratories, North Chicago, Ill.; and (3) injections (10) or (11) (as described in Example 16) with Miglyol® 810 (caprylic/capric glyceride). Typically, formulation (1) above was used for bolus dosing and formulations (2) or (3) for infusion dosing. Compounds of the invention and propanidid were synthesized as described in Examples 1-15 below. Propofol formulated in soybean oil, sold as Diprivan® injectable emulsion was obtained from AstraZeneca (Wilmington, Del.).
Administration by Infusion (Rats)
Rats (adult Sprague-Dawley) were placed in a perspex restrainer and anesthesia induced by bolus injection via the tail vein (0.15-1 mL/kg over approximately 3 seconds at a dose, estimated from the earlier bolus experiments, to produce anesthesia of approximately 2 minutes duration). Immediately after bolus administration, an infusion (with a duration of typically 20, 180 or 300 minutes), via the tail vein, was commenced (0.075-0.5 mL/kg/min at a half of the bolus dose/min). In some experiments, the initial infusion rate was maintained throughout, while in others, the rate was modified as necessary to maintain a consistent depth of anesthesia (as defined by moderate paw withdrawal in response to noxious pinch). Following completion of the infusion, duration of anesthesia (i.e. duration of loss of righting reflex) and behavioral recovery (i.e. duration of ataxia, sedation or lethargy following return of the righting reflex) was recorded.
Administration by infusion (rats): Recovery times following termination of administration by infusion in rats were determined for compound 1 and for the comparison compounds propofol and propanidid. The duration of the loss of righting reflex (in minutes) following termination of infusion is given as a function of duration of infusion in Table 2 below.

guinea pigs = test: Test A: bolus administration (guinea pigs), loss of righting reflex; format: in vivo, guinea pig; details: bolus via ear vein, calculated from dose response
Protocol: as §1
Bolus Administration (Guinea Pigs)
Adult male guinea pigs were dosed by bolus administration (0.1-0.25 mL volume) via an ear vein. Duration of loss of righting reflex was measured as described above for rats.
Bolus administration (guinea pigs): The potency of compound 1 was also tested in guinea pigs by the analogous procedure. The dose of compound 1 required to produce 2 minutes of loss of righting reflex in guinea pigs was calculated to be 8 mg/kg, as compared with a dose of 13 mg/kg for propanidid.

[1] = 20 minute Infusion via tail vein

Question: How did the “Duration of Loss of Righting Reflex Following Termination of Infusion” value (“Duration of Loss … of Infusion” below) (rats; [1]) turn out when `CCCOC(=O)Cc1ccc(OCC(=O)N(CC)CC)c(OCC)c1` [Compound 1, [4-[(N,N-Diethylcarbamoyl)methoxy]-3-ethoxyphenyl]acetic acid propyl ester] was run?
Answer: Its value is 1.4 ± 0.1 min.

Question: What about the “Duration of Loss … of Infusion” value (rats; 3 hour Infusion via tail vein) of the same compound?
Answer: The value was 1.7 ± 0.1 min.

Question: And the “Duration of Loss … of Infusion” value (rats; 5 hour Infusion via tail vein)?
Answer: Its value is 2.6 ± 1.0 min.

Question: And the “dose required to produce 2 minutes of loss of righting reflex” value (guinea pigs)?
Answer: The value was 8 mg/kg.

Question: For `CCCOC(=O)Cc1ccc(OCC(=O)N(CC)CC)c(OC)c1` [Propanidid, [4-[(N,N-diethylcarbamoyl)methoxy]-3-methoxyphenyl]acetic acid propyl ester], which “Duration of Loss … of Infusion” value (rats; [1]) is on record?
Answer: The value was 1.6 ± 0.2 min.

Question: And the “Duration of Loss … of Infusion” value (rats; 3 hour Infusion via tail vein)?
Answer: Its value is 1.4 ± 0.1 min.

Question: What about the “dose required to produce 2 minutes of loss of righting reflex” value (guinea pigs) of the same compound?
Answer: Its value is 13 mg/kg.

Question: What does the source list for `CC(C)c1cccc(C(C)C)c1O` [Propofol, 2,6-diisopropylphenol]?
Answer: Duration of Loss of Righting Reflex Following Termination of Infusion (rats; [1]): 30.0 ± 2.9 min; Duration of Loss of Righting Reflex Following Termination of Infusion (rats; 3 hour Infusion via tail vein): 47.8 ± 5.3 min; Duration of Loss of Righting Reflex Following Termination of Infusion (rats; 5 hour Infusion via tail vein): 59.0 ± 1.4 min

Reference: patent publication US7939689B2, “Short-acting sedative hypnotic agents for anesthesia and sedation” (Theravance, Inc., priority 2002, dated 2011)
